# Experiments:
# Type in all cases: cell-based
# [1] = test system: T. b. brucei Lister427 bloodstream form parasites; assay: T. b. brucei growth inhibition assay (CellTiter-Glo, 48 hours); details: Trypanosoma brucei
# Source text: Bloodstream form of T. b. brucei Lister427 strain was obtained from the Genomics Institute of the Novartis Research Foundation. This strain was used for carrying out growth inhibition and kill kinetics assays. T. b. gambiense STIB930 and T. b. rhodesiense STIB900 were obtained from Swiss TPH, were used for carrying out the growth inhibition assays.
# Bloodstream form T. b. brucei Lister 427 parasites were continuously passaged in HMI-9 medium formulated from IMDM medium (Invitrogen), 10% heat-inactivated fetal bovine serum (FBS), 10% Serum Plus medium supplement (SAFC Biosciences), 1 mM hypoxanthine (Sigma-Aldrich), 50 μM bathocuproine disulfonic acid (Sigma-Aldrich), 1.5 mM cysteine (Sigma-Aldrich), 1 mM pyruvic acid (Sigma-Aldrich), 39 μg/mL thymidine (Sigma-Aldrich), and 14 μL/L beta-mercapthoethanol (Sigma-Aldrich); all concentrations of added components refer to that in complete HMI-9 medium. The parasites were cultured in 10 mL of HMI-9 medium in T75 CELL-STAR tissue culture flasks at 37° C./5% CO2.
# (§1) To determine compound growth inhibitory potency on T. b. brucei Lister427 bloodstream form parasites, 200 nL of 10-point, 3 fold serially diluted compounds in DMSO were transferred to the wells of white, solid bottom 384-well plates (Greiner Bio-One) by either Echo 555 acoustic liquid handling system or Mosquito. Then, 1×10^4 of T. b. brucei parasites in 40 μL of HMI-9 medium were added to each well, and the plates were incubated for 48 hours at 37° C. in 5% CO2 incubators. Parasite numbers in individual plate wells were determined through quantification of intracellular ATP amount. The CellTiter-Glo luminescent cell viability reagent (Promega) was added to plate wells, and ATP-dependent luminescence signal was measured on Tecan M1000 plate Reader after 30 min incubation. Luminescence values in wells with compounds were divided by the average luminescence value of the plate DMSO controls, and used for calculation of compound IC50 values.
# [2] = test system: intracellular T. cruzi amastigotes; assay: T. cruzi amastigote growth inhibition assay (NIH 3T3 host cells, β-galactosidase readout); details: Trypanosoma cruzi, NIH3T3, read-out: (c) T.c.* IC50
# Procedure: NIH 3T3 fibroblast cells (ATCC) were maintained in RPMI-1640 medium (Life Technologies) supplemented with 10% heat-inactivated fetal bovine serum and 100 IU penicillin/100 μg/ml streptomycin at 37° C./5% CO2. T. cruzi Tulahuen parasites constitutively expressing E. coli β-galactosidase were maintained in tissue culture as an infection in NIH 3T3 fibroblast cells. Briefly, 2×10^7 T. cruzi trypomastigotes were used to infect 6×10^5 NIH 3T3 cells growing in T75 CELLSTAR tissue culture flasks and cultured at 37° C./5% CO2 until proliferating intracellular parasites lysed host 3T3 cells and were released into the culture medium (typically 6-7 days). During the infection, the tissue culture medium was changed every two days. Number of T. cruzi trypomastigotes present in 1 ml of medium was determined using a haemocytometer.
# To determine compound potency on intracellular T. cruzi amastigotes, NIH 3T3 cells were re-suspended in phenol red-free RPMI-1640 medium containing 3% heat-inactivated fetal bovine serum and 100 IU penicillin/100 μg/ml streptomycin, seeded at 1,000 cells/well (40 μl) in white, clear bottom 384-well plates (Greiner Bio-One), and incubated overnight at 37° C./5% CO2. The following day, 100 nl of each compound in DMSO were transferred to individual plate wells by Echo 555 acoustic liquid handling system. After one hour incubation, 1×10^6 of tissue culture-derived T. cruzi trypomastigotes, in 10 μl of phenol red-free RPMI-1640 medium supplemented with 3% heat-inactivated fetal bovine serum and 100 IU penicillin/100 μg/ml streptomycin were added to each well. Plates were then incubated for 6 days at 37° C./5% CO2. Intracellular T. cruzi parasites were quantified by measuring the activity of parasite-expressed β-galactosidase. Ten microliters of a chromogenic β-galactosidase substrate solution (0.6 mM chlorophenol red-β-D-galactopyranoside/0.6% NP-40 in PBS; both reagents from Calbiochem) were added to each well and incubated for 2 h at room temperature. After incubation, absorption was measured at 570 nm on SpectraMax M2 plate reader (Molecular Devices). Measured absorbance values in wells with compounds were divided by the average absorbance value of the plate DMSO controls, and used for calculation of compound EC50 values as described above.
# T.b. gambinese STIB930 = assay: T.b. gambiense growth inhibition assay; details: Trypanosoma brucei, read-out: (b) T.b.g* IC50
# Procedure: as §1, with “Bloodstream form of T. b. brucei Lister427 strain was obtained from the Genomics Institute of the Novartis Research Foundation. This strain was used for carrying out growth inhibition and kill kinetics assays. T. b. gambiense STIB930 and T. b. rhodesiense STIB900 were obtained from Swiss TPH, were used for carrying out the growth inhibition assays. Bloodstream form of T. b. gambiense and T. b. rhodesiense were also grown in HMI-9 media, described above, but the media was supplemented by 5% human serum and 5% heat-inactivated FBS instead of 10% FBS. To” for “To”, “values. Similar assay was also used for determining IC50 against T.b. gambinese STIB930 and T. b. rhodesiense STIB900 strains, but the initial concentration of cells used was 3×10^4 parasites/ml.” for “values.”
# [3] = test system: Leishmania donovani axenic amastigote; assay: Growth inhibition of Leishmania donovani axenic amastigote; details: L. donovani growth inhibition, read-out: (d) L.d* IC50
# Procedure: Leishmania donovani axenic amastigote parasites are grown at 37° C., 5% CO2 in media made of RPMI 1640, 4 mM L-glutamine, 20% heat inactivated FBS, 100 units/ml of penicillin and 100 μg/ml of streptomycin, 23 μM Folic Acid, 100 μM Adenosine, 22 mM D-glucose, 25 mM MES. The pH of media is adjusted to 5.5 at 37° C. using HCl. 20 μL of media is first dispensed into 384 well plates and 100 nL of the compounds of invention in DMSO are added to the plate wells. At the same time control compounds and DMSO are added to plates to serve as the positive and negative controls, respectively. 40 μL of parasite culture (9600 parasites) are then added to the plate wells. The plates are then placed into incubators. After 2 day incubation, 20 μL of Cell TiterGlo (Promega) is added to the plate wells. The luminescence signal of each well is measured using the Envision reader (Perkin Elmer). The percentage inhibition of 50%, EC50, is calculated for each of the compounds.
smiles,measurement,setting,value
"N#Cc1ncn(CC(=O)N2Cc3ccc(-c4ccc(F)nc4C(F)(F)F)cc3C2)n1 [Example 26, 1-(2-(5-(6-fluoro-2-(trifluoromethyl)pyridin-3-yl)isoindolin-2-yl)-2-oxoethyl)-1H-1,2,4-triazole-3-carbonitrile]",IC50,[1],100 to 1000 nM
same,IC50,[2],< 100 nM
"N#Cc1ncn(CC(=O)N2Cc3ccc(-c4ccncc4C(F)(F)F)cc3C2)n1 [Example 27, 1-(2-oxo-2-(5-(3-(trifluoromethyl)pyridin-4-yl)isoindolin-2-yl)ethyl)-1H-1,2,4-triazole-3-carbonitrile]",IC50,T.b. gambinese STIB930,< 100 nM
same,IC50,[1],< 100 nM
same,IC50,[2],< 100 nM
"N#Cc1ncn(CC(=O)N2Cc3ccc(-c4ccc(F)cc4C#N)cc3C2)n1 [Example 32, 1-(2-(5-(2-cyano-4-fluorophenyl)isoindolin-2-yl)-2-oxoethyl)-1H-1,2,4-triazole-3-carbonitrile]",IC50,[1],100 to 1000 nM
same,IC50,[2],< 100 nM
same,IC50,[3],≥ 1000 nM
"N#Cc1ncn(CC(=O)N2Cc3ccc(-c4c(Cl)cccc4Cl)cc3C2)n1 [Example 35, 1-(2-(5-(2,6-dichlorophenyl)isoindolin-2-yl)-2-oxoethyl)-1H-1,2,4-triazole-3-carbonitrile]",IC50,[1],100 to 1000 nM
same,IC50,[2],< 100 nM
same,IC50,[3],≥ 1000 nM
"N#Cc1ncn(CC(=O)N2Cc3ccc(-c4ccccc4C(F)(F)F)cc3C2)n1 [Example 36, 1-(2-oxo-2-(5-(2-(trifluoromethyl)phenyl)isoindolin-2-yl)ethyl)-1H-1,2,4-triazole-3-carbonitrile]",IC50,[1],100 to 1000 nM
same,IC50,[2],< 100 nM
same,IC50,[3],≥ 1000 nM
"COCCOc1cc(F)ccc1-c1ccc2c(c1)CN(C(=O)Cn1cnc(C#N)n1)C2 [Example 39, 1-(2-(5-(4-fluoro-2-(2-methoxyethoxy)phenyl)isoindolin-2-yl)-2-oxoethyl)-1H-1,2,4-triazole-3-carbonitrile]",IC50,[1],100 to 1000 nM
same,IC50,[2],≥ 1000 nM
"N#Cc1ncn(CC(=O)N2Cc3ccc(-c4ccccc4OC(F)(F)F)cc3C2)n1 [Example 40, 1-(2-oxo-2-(5-(2-(trifluoromethoxy)phenyl)isoindolin-2-yl)ethyl)-1H-1,2,4-triazole-3-carbonitrile]",IC50,[1],100 to 1000 nM
same,IC50,[2],100 to 1000 nM
"N#Cc1ncn(CC(=O)N2Cc3ccc(-c4ccc(C(F)(F)F)cc4Cl)cc3C2)n1 [Example 42, 1-(2-(5-(2-chloro-4-(trifluoromethyl)phenyl)isoindolin-2-yl)-2-oxoethyl)-1H-1,2,4-triazole-3-carbonitrile]",IC50,[1],100 to 1000 nM
same,IC50,[2],≥ 1000 nM
"N#Cc1ncn(CC(=O)N2Cc3ccc(-c4ccccc4C#N)cc3C2)n1 [Example 43, 1-(2-(5-(2-cyanophenyl)isoindolin-2-yl)-2-oxoethyl)-1H-1,2,4-triazole-3-carbonitrile]",IC50,[1],100 to 1000 nM
same,IC50,[2],< 100 nM
same,IC50,[3],≥ 1000 nM
"N#Cc1ncn(CC(=O)N2Cc3ccc(-c4cccc(C#N)c4F)cc3C2)n1 [Example 44, 1-(2-(5-(3-cyano-2-fluorophenyl)isoindolin-2-yl)-2-oxoethyl)-1H-1,2,4-triazole-3-carbonitrile]",IC50,[1],100 to 1000 nM
same,IC50,[2],100 to 1000 nM
"N#Cc1ccc(-c2ccc3c(c2)CN(C(=O)Cn2cnc(C#N)n2)C3)cc1 [Example 46, 1-(2-(5-(4-cyanophenyl)isoindolin-2-yl)-2-oxoethyl)-1H-1,2,4-triazole-3-carbonitrile]",IC50,[1],100 to 1000 nM
same,IC50,[2],100 to 1000 nM
same,IC50,[3],≥ 1000 nM
"Cn1nc(C(F)(F)F)cc1-c1ccc2c(c1)CN(C(=O)Cn1cnc(C#N)n1)C2 [Example 48, 1-(2-(5-(1-methyl-3-(trifluoromethyl)-1H-pyrazol-5-yl)isoindolin-2-yl)-2-oxoethyl)-1H-1,2,4-triazole-3-carbonitrile]",IC50,[1],100 to 1000 nM
same,IC50,[2],100 to 1000 nM
"CC(=O)c1ccccc1-c1ccc2c(c1)CN(C(=O)Cn1cnc(C#N)n1)C2 [Example 50, 1-(2-(5-(2-acetylphenyl)isoindolin-2-yl)-2-oxoethyl)-1H-1,2,4-triazole-3-carbonitrile]",IC50,[1],100 to 1000 nM
same,IC50,[2],100 to 1000 nM
"COc1cc(F)ccc1-c1ccc2c(c1)CN(C(=O)Cn1cnc(C#N)n1)C2 [Example 51, 1-(2-(5-(4-fluoro-2-methoxyphenyl)isoindolin-2-yl)-2-oxoethyl)-1H-1,2,4-triazole-3-carbonitrile]",IC50,[1],100 to 1000 nM
same,IC50,[2],100 to 1000 nM
"COc1ccc(Cl)cc1-c1ccc2c(c1)CN(C(=O)Cn1cnc(C#N)n1)C2 [Example 52, 1-(2-(5-(5-chloro-2-methoxyphenyl)isoindolin-2-yl)-2-oxoethyl)-1H-1,2,4-triazole-3-carbonitrile]",IC50,[1],100 to 1000 nM
same,IC50,[2],100 to 1000 nM
"N#Cc1ncn(CC(=O)N2Cc3ccc(-c4cccc(F)c4C(F)(F)F)cc3C2)n1 [Example 84, 1-(2-(5-(3-fluoro-2-(trifluoromethyl)phenyl)isoindolin-2-yl)-2-oxoethyl)-1H-1,2,4-triazole-3-carbonitrile]",IC50,[1],100 to 1000 nM
same,IC50,[2],< 100 nM
"N#Cc1ncn(CC(=O)N2Cc3ccc(-c4cnccc4C(F)(F)F)cc3C2)n1 [Example 86, 1-(2-oxo-2-(5-(4-(trifluoromethyl)pyridin-3-yl)isoindolin-2-yl)ethyl)-1H-1,2,4-triazole-3-carbonitrile]",IC50,[1],100 to 1000 nM
same,IC50,[2],100 to 1000 nM
